Publication PMC4434572, “Identification of novel drugs to target dormant micrometastases” (BMC Cancer, 2015)
Where two headings read alike, the source gives them in different places.

Experiments:
[1] = system: MDA-MB-435 cells; assay: Proliferation (CFDA-AM esterase assay) of cells grown on SISgel, plastic or Matrigel, 48 h drug exposure; type: cell-based; conditions: for EC50: Homo sapiens; for SI (EC50-P/EC50-S): ratio of EC50 on plastic versus SISgel
Text: The libraries were obtained from the NCI (Diversity Library I) comprised of 2,918 compounds and a 10,000 compound diversity library from ChemBridge, Inc. (DiverSet-EXP). The NCI library is no longer available in the form used here, but how it was constructed is described (http://dtp.nci.nih.gov/branches/dscb/diversity_explanation.html). The ChemBridge library is a subset (Set Code NM1024) of the full 50,000 compound library (http://www.chembridge.com/screening_libraries/diversity_libraries/). Compounds were diluted to 100 μM before use. SISgel was prepared as described previously from powdered porcine small intestine submucosa obtained from Cook Biotech (W. Lafayette, IN). It is a natural product that is used extensively in tissue engineering as a bioscaffold. J82 bladder cancer cells and other cell lines were obtained from the ATCC (Bethesda, MD). The basic principle is that cells grown on any ECM are, in general, expected to show higher resistance to anticancer compounds than when grown on plastic. Therefore, compounds that show a higher activity toward cancer cells on a normal ECM than on a plastic surface would be candidates to target suppressed, micrometastatic cells. Efficacy in vitro was assessed by plating 30,000 cells in 50 μL of high glucose DMEM with penicillin-streptomycin and 10 % fetal calf serum on SISgel in a 96-well plate containing 50 μL of gelled SISgel per well. Cells were allowed to attach and assume the SISgel phenotype for 48 h. A matching plate without SISgel was prepared 24 h later by pipetting 3,000 cells in 100 μL of high glucose DMEM with penicillin-streptomycin and 10 % fetal calf serum into each well of 96 well plate. The cells were allowed to attach and grow for 24 h. These numbers of cells gave approximately equal replication rates at the time drug was added for cells grown on the plastic surface or SISgel as determined by the fraction of S-phase cells identified by flow cytometry. The cells were exposed to drug in fresh medium for 48 h, at which time the cell number was determined using the CFDA-AM cellular esterase proliferation assay (cat. #C1354, Life Technologies). For screening the results are reported as the ratio of cell count of cells on the plastic surface to the cell count on SISgel. An initial difference of 1.5 fold identified potential hits. All potential hits were confirmed in triplicate. Those compounds that replicated were confirmed by a full dose–response study yielding an EC50 using five wells per drug concentration. Data were analyzed using nonlinear regression to a sigmoid curve with Prism 4 (GraphPad Software, Inc., LaJolla, CA). Potential hits that were confirmed by dose–response using J82 were also tested with MDA-MB-435 breast cancer, PC-3 metastatic prostate cancer, Capan1 pancreatic cancer and the J82 bladder cancer cell lines.

[2] = in vivo; conditions: mouse
[3] = system: mice; assay: Toxicity / maximum tolerated dose in mice; conditions: mice
[4] = system: 4T1 stem cells (CD44v3highALDH1high 4T1 cells); assay: Tumor cell growth inhibition of sphere-derived cancer stem cells (CellTiter-Glo); type: cell-based, mouse; conditions: suspension culture, 5 days; read-out: EC50 4T1 stem cells in suspension culture
Procedure: Sphere formation to further increase the fraction of cancer stem cells was induced by suspending CD44v3highALDH1high 4T1 cells in 1:1 Matrigel/basal medium in a total of volume of 100 μl. Samples (5 × 10^4 cells) were then plated around the rims of wells in a 12-well plate and allowed to solidify at 37 °C for 10 min before 1 ml basal medium (with B27 plus 20 ng/mL EGF, 10 ng/mL FGF and 4 μg/mL insulin) was added. Medium was replenished every 3-days. Ten days after plating, spheres (tight, spherical, nonadherent masses >40 μm in diameter) per well were counted, and at least 100 spheres per group were measured. The number of spheres containing CD44v3highALDH1high 4T1 cells in each well and expressed as sphere forming units (SFU) as described previously. The number of SFUs per well was counted in triplicate wells for each condition.
To recover CD44v3highALDH1high 4T1 cells from the spheres, Matrigel–containing wells were treated with 1 mg/ml Dispase solution (Gibco). Spheres were then digested with trypsin and 0.05 % EDTA. CD44v3highALDH1high cells dissociated from spheres were counted by hemacytometer and replated to generate spheres of next generation. Serial passage of individual spheres was regularly performed in order to verify self-renewal capability of cells associated the spheres. Measurement of growth for CD44v3highALDH1high cells (dissociated from spheres) was also performed by incubating these cells in serum-free RPMI-1640 medium for 3-weeks using MTT-based growth assay as described previously.
To analyze tumor cell growth properties, sphere-derived CD44v3highALDH1high 4T1 cells were incubated in basal medium (with B27 plus 20 ng/mL EGF, 10 ng/mL FGF and 4 μg/mL insulin). Medium was replenished every 3-days. Twenty-one days after plating, the number of cell growth was then counted under a microscope at low magnification. In some cases, these sphere-derived CD44v3highALDH1high 4T1 cells were also treated with DT compounds for 5 days or doxorubicin (range 1 μM to 1 mM) for 5 days at 37 °C. The CellTiter-Glo® Luminescent Cell Viability Assay (Promega, Madison, WI) was utilized to determine the number of metabolically active cells based on the quantification of adenosine triphosphate (ATP). The percentage of […] relative to untreated controls was plotted as a linear function of drug concentration. The 50 % inhibitory concentration (IC50) was identified as the concentration of drug required to achieve a 50 % growth inhibition relative to untreated controls.
A stem cell–enriched cell population was prepared as described previously by sorting for ALDH1 and CD44v3. The identification of aldehyde dehydrogenase1 (ALDH1) activity from tumor–derived 4T1 Luc2-GFP cells (PerkinElmer, Waltham, MA) was conducted using the ALDEFLUOR kit (StemCell Technologies, Durham, NC). Specifically, tumor cells were suspended in ALDEFLUOR assay buffer containing ALDH1 substrate (BAAA, […] per 1 × 10^6 cells) and incubated for 30 min at 37 °C. As a negative control, 4T1 cells were treated with a specific ALDH1 inhibitor, […] diethylaminobenzaldehyde (DEAB). Next, for labeling cell surface marker, tumor–derived 4T1 cells were suspended in 100 μl ALDEFLUOR buffer followed by incubating with 20 μl allophycocyanin (APC)-labeled anti-CD44v3 antibody (recognizing the v3-specific domain of CD44) or APC-labeled normal mouse IgG (as a control) (BD Bioscience, San Jose, CA) for 15 min at 4 °C. For FACS sorting, tumor cells were incubated in PBS buffer followed by FACS (BD FACS Aria llu, BD Bioscience, San Jose, CA) sorting using dual-wavelength analysis as described previously. The parental cell line contained 2 % CD44v3highALDH1high cells but the final sorted cells contained 18 % CD44v3highALDH1high cells, a 9-fold enrichment.

[5] = system: cancer cells on SISgel or plastic; assay: Activity of leads and analogs on cancer cells grown on plastic vs SISgel (cell line not stated); type: cell-based; conditions: for SR: ratio IC50-p/IC50-S; for Hit: YES/NO
Procedure: The NCI library is no longer available in the form used here, but how it was constructed is described (http://dtp.nci.nih.gov/branches/dscb/diversity_explanation.html). The ChemBridge library is a subset (Set Code NM1024) of the full 50,000 compound library (http://www.chembridge.com/screening_libraries/diversity_libraries/). Compounds were diluted to 100 μM before use. SISgel was prepared as described previously from powdered porcine small intestine submucosa obtained from Cook Biotech (W. Lafayette, IN). It is a natural product that is used extensively in tissue engineering as a bioscaffold. J82 bladder cancer cells and other cell lines were obtained from the ATCC (Bethesda, MD). […] Efficacy in vitro was assessed by plating 30,000 cells in 50 μL of high glucose DMEM with penicillin-streptomycin and 10 % fetal calf serum on SISgel in a 96-well plate containing 50 μL of gelled SISgel per well. Cells were allowed to attach and assume the SISgel phenotype for 48 h. A matching plate without SISgel was prepared 24 h later by pipetting 3,000 cells in 100 μL of high glucose DMEM with penicillin-streptomycin and 10 % fetal calf serum into each well of 96 well plate. The cells were allowed to attach and grow for 24 h. […] The cells were exposed to drug in fresh medium for 48 h, at which time the cell number was determined using the CFDA-AM cellular esterase proliferation assay (cat. #C1354, Life Technologies). For screening the results are reported as the ratio of cell count of cells on the plastic surface to the cell count on SISgel. An initial difference of 1.5 fold identified potential hits. All potential hits were confirmed in triplicate. […] Data were analyzed using nonlinear regression to a sigmoid curve with Prism 4 (GraphPad Software, Inc., LaJolla, CA). […]

[6] = MDA-MB-435 cells on SISgel, read-out: EC50-S
[7] = MDA-MB-435 cells on plastic, read-out: EC50-P
[8] = cells on SISgel, read-out: IC50-S
[9] = cells on plastic, read-out: IC50-p

| Structure (SMILES) | EC50 [1, 6] [µM] | EC50 [1, 7] [µM] | SI (EC50-P/EC50-S) [1] | MTD [2] [mg/kg] | doses at which highly toxic to mice [3] | toxicity in mice [3] | EC50 [4] [µM] | IC50 [5, 8] [µM] | IC50 [5, 9] [µM] | SR [5] | Hit [5] |
| --- | --- | --- | --- | --- | --- | --- | --- | --- | --- | --- | --- |
| COc1ccc(C2C3=C(CCCC3=O)NC3=C2C(=O)c2ccccc23)c(OC)c1OC (stereo not shown) [DT340, 10-(2,3,4-trimethoxyphenyl)-6,7,8,10-tetrahydro-5H-indeno[1,2-b]quinoline-9,11-dione] | 117 | 219 | 1.9 | < 10 | less than 10 mg/kg | dose-limiting toxicity |  |  |  |  |  |
| O=S(=O)([O-])c1ccc(N=Nc2ccc(O)c3ccccc23)cc1.[Na+] [Orange 1] |  |  |  |  |  |  | 398 | 1200 | 657 | 0.55 |  |
| CCN(Cc1cccc(S(=O)(=O)[O-])c1)c1ccc(C(=C2C=CC(=[N+](CC)Cc3cccc(S(=O)(=O)[O-])c3)C=C2)c2ccc(S(=O)(=O)[O-])cc2)cc1.[Na+].[Na+] [Light Green SF Yellowish] |  |  |  |  |  |  |  | 315 | 631 | 2 |  |
| CCN(Cc1cccc(S(=O)(=O)[O-])c1)c1ccc(C(=C2C=CC(=[N+](C)C)C=C2)c2ccc(N(CC)Cc3cccc(S(=O)(=O)O)c3)cc2)cc1.[Na] [Acid Violet 49] |  |  |  |  |  |  |  | 86 | 64 | 0.75 |  |
| COc1ccc(CC(=O)Oc2ccc3c(c2)C(C)=CC(C)(C)N3)cc1 [DT350, 2,2,4-trimethyl-1,2-dihydro-6-quinolinyl (4-methoxyphenyl)-acetate] | 270 | 1830 | 6.8 | < 10 | less than 10 mg/kg | dose-limiting toxicity |  |  |  |  |  |
| CC(=O)Nc1ccc(N=Nc2c(S(=O)(=O)[O-])cc3cc(S(=O)(=O)[O-])cc(O)c3c2O)cc1.[Na+].[Na+] [Chromotrope 6B] |  |  |  |  |  |  |  | 34 | 71 | 2.1 | YES |
| O=S(=O)([O-])c1cc(S(=O)(=O)[O-])c2c(N=Nc3ccc(S(=O)(=O)[O-])c4ccccc34)c(O)ccc2c1.[Na+].[Na+].[Na+] [New Coccine] |  |  |  |  |  |  |  | 27 | 43 | 1.6 | YES |
| CC(=O)Nc1ccc(N=Nc2c(N)ccc3cc(S(=O)(=O)O)cc(O)c23)c(S(=O)(=O)O)c1.N.N [Acid Red 37] |  |  |  |  |  |  |  | 51 | 85 | 1.7 | YES |
| O=[N+]([O-])c1ccc(N=Nc2c(S(=O)(=O)[O-])cc3cc(S(=O)(=O)[O-])cc(O)c3c2O)cc1.[Na+].[Na+] [Acid Red 60 Chromotrope 2B] |  |  |  |  |  |  |  | 22 | 26 | 1.2 |  |
